The text below walks through data of patent publication US20150167016A1, “Plants Tolerant to HPPD Inhibitor Herbicides” (Bayer CropScience AG, priority 2009, published 2015).

Several values for one entry are separate records, joined by “and”; a condition that tells them apart may be missing. Equal entries are not always repeated. Where two headings read alike, the source gives them in different places.

Experiment [1] concerns Picrophilus torridus HPPD "SEQ ID No. 5". As to the kind of experiment: biochemical. Type of experiment: biochemical.
For another experiment, the target named is (UniProt Q6KZ98). As to the kind of experiment: biochemical. In kind it is biochemical, Picrophilus torridus. To be noted: read-out: pI50 (converted).
In experiment [2] the test system is T1 tobacco plants carrying FMP29e from Picrophilus torridus. In words: Glasshouse response to bicyclopyrone, injury classes. In kind it is in vivo, Nicotiana tabacum. To be noted: 100 g Al/ha, 7 DAT. An excerpt:
(§1) Seeds of wild type tobacco plants and T1 tobacco plants carrying the gene from Picrophilus torridus FMP29e coding for HPPD were sown on MS media (Murashige and Skoog […]) supplemented with […] kanamycin. After 4 weeks, rooted green plantlets were transferred to soil and grown for 3 weeks in the glasshouse as described above then sprayed with a mixture containing bicyclopyrone (100 g Al/ha), ammonium sulfate and methyl ester raps oil. The plants were classified in two categories based on the phenotype developed in response to the herbicide seven days after the treatment. […] In this case, only plants containing at least one T-DNA were exposed to the herbicidal treatment.

Experiment [3] concerns Wild type tobacco plants. The description is as above. Type of experiment: in vivo, Nicotiana tabacum. The following applies: WT; 100 g Al/ha, 7 DAT.
Excerpt: as §1

Experiment [4] concerns the target T1, Arabidopsis thaliana HPPD "SEQ ID No. 10" (Arabidopsis thaliana, UniProt P93836).
T1 construct: made in house; host or cells: E. coli K-12 BL21 (pQE30-AtHPPD)
T1 sequence (P93836 with tags, fused parts or gaps): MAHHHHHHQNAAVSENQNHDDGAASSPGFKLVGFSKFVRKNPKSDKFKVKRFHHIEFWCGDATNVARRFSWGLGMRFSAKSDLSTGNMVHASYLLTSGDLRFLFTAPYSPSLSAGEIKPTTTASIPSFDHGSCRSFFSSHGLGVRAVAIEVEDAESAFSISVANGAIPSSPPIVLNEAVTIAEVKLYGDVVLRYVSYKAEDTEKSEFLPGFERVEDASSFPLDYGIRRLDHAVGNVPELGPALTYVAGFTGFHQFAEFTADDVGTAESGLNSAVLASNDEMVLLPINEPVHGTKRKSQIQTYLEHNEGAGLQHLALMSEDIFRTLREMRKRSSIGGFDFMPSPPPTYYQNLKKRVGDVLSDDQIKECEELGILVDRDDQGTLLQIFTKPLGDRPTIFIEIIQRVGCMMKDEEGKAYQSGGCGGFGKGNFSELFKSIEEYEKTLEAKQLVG
As to the kind of experiment: HPPD activity in presence of HPPD inhibitors (spectrophotometric assay of WO 2009/144079). Type of experiment: biochemical.

For experiment [5], the system named is T1 tobacco plants containing FMP29e (Picrophilus torridus HPPD FMP29). As to the kind of experiment: Glasshouse spray trial, herbicidal damage. The following applies: for tolerance of plants containing FMP29e gene: 7 DAT, 100 g Al/ha spray; for % injury, 7DAT, 100 g Al/ha: FMP29e, not selected for transgene. In kind it is in vivo, Nicotiana tabacum. As to the method:
(§2) T0 Tobacco plants containing either the gene from Arabidopsis coding for HPPD or the gene FMP29e from Picrophilus torridus coding for FMP29 HPPD, mentioned above (Example3), were transferred to the glasshouse (28/20° C.), to develop further and produce seeds. Those seeds were harvested and put on soil (ED73 mixed with sand and osmocote Pro) to germinate in the glasshouse (28/20° C.). Three to four weeks later, plantlets were transferred to single pots containing the soil mentioned above. Two weeks later, plants of a size 4-6 cm diameter were sprayed with either • tembotrione at 100 gAl/ha prepared from a WP20 (wettable powder 20%) formulation supplemented with ammonium sulfate and methyl ester raps oil, or • isoxaflutole at 100 gAl/ha prepared from a WP20 formulation supplemented with ammonium sulfate and methyl ester raps oil, or • bicyclopyrone at 100 gAl/ha prepared from a WP20 formulation supplemented with ammonium sulfate and methyl ester raps oil, or • “blind formulation” made from a WP20 formulation without active ingredient (Al) supplemented with ammonium sulfate and methyl ester raps oil, and were then transferred to a growth chamber with adequate light conditions (20000 Lux).
(§3) Table 5: Wild type tobacco plants (A) and Ti populations of tobacco events containing alternatively, the expression cassettes described above having the promoter CaMV 35S, the sequence coding for OTP and the sequence coding for Arabidopsis HPPD (B) or the promoter CaMV35S, the sequence encoding OTP, and the sequence FMP29e coding for the HPPD FMP29 (C). Assessments of herbicidal damage at 7 days after application (DAT) per spray with 100 g Al/ha of tembotrione or isoxaflutole supplemented with ammonium sulfate and methyl ester raps oil. […] Plants belonging to categories (B) and (C) have not been selected for the presence of the respective transgene prior to the herbicide application.

Experiment [6] deals with T1 tobacco plants containing Arabidopsis HPPD. As to the kind of experiment: Glasshouse spray trial, herbicidal damage. To be noted: not selected for transgene. In kind it is in vivo, Nicotiana tabacum. As to the method:
as §2, §3

Experiment [7] has as its system Wild type tobacco plants. As to the kind of experiment: Glasshouse spray trial, herbicidal damage. The following applies: individual plants, 100% = same bleaching as wild type. Type of experiment: in vivo, Nicotiana tabacum. As to the method: as §2, §3
The subject of experiment [8] is tobacco calli containing HPPD SEQ ID No. 7 (Picrophilus torridus). In words: Rooting of calli on media with tembotrione. In kind it is cell-based, Nicotiana tabacum. To be noted: calli containing SEQ ID No. 7, 6 to 12 weeks. On the procedure: (§4) The leaf disks were co-cultivated for 2 days with Agrobacterium tumefaciens cells containing either the binary vector FMP29ebv or AtHPPDbv. Then the leaf disks were transferred to a media allowing the regeneration of shoots for 6 weeks on MS (Musharige and Skoog, (1962), Physiol Plant 15(3): 473-497) media supplemented with BAP (1 mg/mL; Benzylaminopurine), carbenicillin (250 mg/mL), cefotaxine (250 mg/mL), kanamycin (75 mg/mL) and tembotrione (10^−6 M) Regenerated calli were transferred on media to induce the development of roots for 6 to 12 weeks: MS (½), supplemented with carbenicillin (250 mg/mL), cefotaxine (250 mg/mL), kanamycin (75 mg/mL), and tembotrione (10^−6 M).
(§5) Regenerated shoot calli from a cell transformed with a nucleic acid sequence encoding an HPPD comprising SEQ ID No. 11 (Arabidopsis thaliana) or SEQ ID No. 7 (Picrophilus torridus) were transferred to a media inducing root growth which media was further supplemented with the HPPD inhibitor tembotrione for 6 to 12 weeks.

Experiment [9] concerns tobacco calli containing HPPD SEQ ID No. 11 (Arabidopsis thaliana). As to the kind of experiment: Rooting of calli on media with tembotrione. Type of experiment: cell-based, Nicotiana tabacum. To be noted: calli containing SEQ ID No. 11; 6 to 12 weeks. On the procedure: as §4, §5
The mark [10] stands for this setting: SEQ ID No. 5, 5.0 × 10^−6M inhibitor.
Setting [11] is: FMP29e line 121, plants with at least one T-DNA.
The mark [12] stands for this setting: SEQ ID No. 5, 2 mM HPP, 3 minutes incubation, >> = far higher than indicated, not calculable in tested range 2.5 × 10^−6 to 2.5 × 10^−4M.

On to `CS(=O)(=O)c1ccc(C(=O)C2C(=O)CCCC2=O)c(Cl)c1COCC1CCCO1` (centres unmarked) [Tefuryltrione, 2-[2-chloro-4-(methylsulfonyl)-3-[[(tetrahydro-2-furanyl)methoxy]methyl]benzoyl]-1,3-cyclohexanedione], for which the “percentage of inhibition compared to the activity measured in absence of the inhibitor” value (“percentage of inhibition” for short) in [1] (setting [10]) is 87. %. In addition, the IC50 at (UniProt Q6KZ98) is 3.16 µM.

Turning to `Cc1ccc(C(=O)COc2c(C(=O)c3ccc(Cl)c(C)c3Cl)c(C)nn2C)cc1` [Benzofenap], the “percentage of inhibition” value in experiment [1] (setting [10]) was 44%. In addition, at (UniProt Q6KZ98), the IC50 was 15.8 µM.

Take `COCCOCc1nc(C(F)(F)F)ccc1C(=O)C1=C(O)C2CCC(C2)C1=O` (centres unmarked) [Bicyclopyrone, 4-hydroxy-3-[[2-[(2-methoxyethoxy)methyl]-6-(trifluoromethyl)-3-pyridinyl]carbonyl]bicyclo[3.2.1]oct-3-en-2-one]: the “tolerance of plants containing the HPPD FMP29” value in [2] was “displayed tolerance”. Further, in experiment [2] (FMP29e line 121), the “% of tolerant plant” value amounted to 2%. Also, in experiment [2] (setting [11]), the “Class I (number of plants, injury: 0-30%)” value is listed as 38 and the “Class II (number of plants, injury: 31-100%)” value is 11. Also, in the experiment with Wild type tobacco plants [3], the “% of tolerant plant” value is 0%; the “Class I (number of plants, injury: 0-30%)” value amounted to 0; the “Class II (number of plants, injury: 31-100%)” value turned out to be 12. Further, the “percentage of inhibition” value in experiment [1] (setting [10]) came to 24%. In addition, at (UniProt Q6KZ98), the IC50 is 398 µM.

Regarding `CS(=O)(=O)c1ccc(C(=O)C2C(=O)CCCC2=O)c([N+](=O)[O-])c1` [Mesotrione, 2-[4-(methylsulfonyl)-2-nitrobenzoyl]-1,3-cyclohexanedione], the “percentage of inhibition” value in experiment [1] turned out to be 84%.

`Cc1nn(C)c(O)c1C(=O)c1ccc(C(F)(F)F)cc1S(C)(=O)=O` [Pyrasulfotole]: the pI50 in experiment [4] (2 mM HPP, 3 minutes incubation, >> = far higher than indicated, not calculable in tested range 2.5 × 10^−6 to 2.5 × 10^−4M) was 5.4; in [1] (setting [12]) it was 4.0. The “percentage of inhibition” value amounted to 69% in experiment [4] (5.0 × 10^−6M inhibitor) and 7% in [1] (setting [10]).

On to `CS(=O)(=O)c1cc(C(F)(F)F)ccc1C(=O)c1cnoc1C1CC1` [Isoxaflutole, (5-cyclopropyl-4-isoxazolyl)[2-(methylsulfonyl)-4-(trifluoromethyl)phenyl]methanone], for which the “tolerance of plants containing FMP29e gene” value in experiment [5] is recorded as “far more tolerant”. Also, the “% injury, 7DAT, 100 g Al/ha” value in [5] (line 115, individual T1 plants) was 0% and 2% and 5% and 10% and 15% and 30% (2×) and 40%; in experiment [5] (line 292, individual T1 plants) it was 20% and 30% and 40%; in experiment [6] (line 252, individual T1 plants), 30% and 70% and 95% and 98% (2×) and 99% (4×) and 100% (4×); in [6] (line 258, individual T1 plants) it was 100%; in experiment [6] (line 327, individual T1 plants), 10% and 20% and 60% (2×) and 70% and 80% and 95% and 98% and 99% and 100% (6×); with Wild type tobacco plants [7], 98% and 99% (2×) and 100% (4×).

For `CS(=O)(=O)c1ccc(C(=O)C2C(=O)CCCC2=O)c(Cl)c1COCC(F)(F)F` [Tembotrione, 2-[2-chloro-4-(methylsulfonyl)-3-[(2,2,2,-tri-fluoroethoxy)methyl]benzoyl]-1,3-cyclo-hexanedione], the “tolerance of plants containing FMP29e gene” value in experiment [5] is given as “far more tolerant”. Further, the “% injury, 7DAT, 100 g Al/ha” value was 30% and 40% and 50% (3×) in experiment [5] (line 115, individual T1 plants); 20% (2×) and 30% and 40% (2×) in experiment [5] (line 292, individual T1 plants); 30% and 40% (3×) and 50% and 60% (2×) and 70% (2×) and 75% (3×) and 80% in [6] (line 252, individual T1 plants); 100% (5×) and 30% in experiment [6] (line 258, individual T1 plants); 10% and 20% (2×) and 40% and 50% and 0% and 70% (5×) and 80% (4×) in experiment [6] (line 327, individual T1 plants); 100% in the experiment on Wild type tobacco plants [7]. Also, the “root growth on media supplemented with tembotrione” value in [8] was “developed numerous and healthy roots”; in experiment [9], “On none of the events”. For the same compound, the “% Elongation & rooting on 10^−6M tembotrione” value in experiment [8] (10^−6M) was found to be 65%. Moreover, the pI50 in [1] (setting [12]) is listed as 5.5. In experiment [1] (setting [10]), the “percentage of inhibition” value is on record as 58%.

For `CS(=O)(=O)c1ccc(C(=O)C2C(=O)CCCC2=O)c(Cl)c1` [Sulcotrione, 2-[2-chloro-4-(methylsulfonyl)benzoyl]-1,3-cyclohexanedione], in [1], the pI50 is listed as >5.6 and the “percentage of inhibition” value was determined as 92%.

As for `CS(=O)(=O)c1cc(C(F)(F)F)ccc1C(=O)C(C#N)C(=O)C1CC1` (centres unmarked) [Diketonitrile, 2-cyano-3-cyclopropyl-1-(2-methylsulphonyl-4-trifluoromethylphenyl)-propane-1,3-dione], the “percentage of inhibition” value in experiment [1] (setting [10]) is reported as 26%. The IC50 at (UniProt Q6KZ98) was 12.6 µM.
